From patent US11332470B2, “CXCR4 inhibitors and uses thereof” (X4 Pharmaceuticals, Inc., priority 2016, dated 2022)
Like-named read-outs stand apart in the source and are kept apart here.

Experiments:
in vitro = conditions: human, Caco-2, pH 7.4
How it was run: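 Compound at 10 μM in HBSS pH 7.4 dosed A-to-B and B-to-A across Caco-2 monolayers, 90 min at 37 °C, duplicates. Monolayer integrity by TEER and lucifer yellow (5 μM, fluorescence 485/535 nm); compound quantified by LC-MS/MS.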

CXCR4 (U87.CXCR4 cells) = molecular target: T1, CXCR4 (U87.CXCR4 cells) (Homo sapiens, UniProt P61073); assay: Intracellular CXCL-12-induced calcium mobilization assay (FLIPR); type: cell-based; conditions: CXCL-12 25-50 ng/mL, read-out: IC50 CXCL-12 Ca2+ flux U87.CXCR4+
T1 construct: expressed in transfected cells; host or cells: U87 (U87.CXCR4)
T1 sequence (P61073 whole entry): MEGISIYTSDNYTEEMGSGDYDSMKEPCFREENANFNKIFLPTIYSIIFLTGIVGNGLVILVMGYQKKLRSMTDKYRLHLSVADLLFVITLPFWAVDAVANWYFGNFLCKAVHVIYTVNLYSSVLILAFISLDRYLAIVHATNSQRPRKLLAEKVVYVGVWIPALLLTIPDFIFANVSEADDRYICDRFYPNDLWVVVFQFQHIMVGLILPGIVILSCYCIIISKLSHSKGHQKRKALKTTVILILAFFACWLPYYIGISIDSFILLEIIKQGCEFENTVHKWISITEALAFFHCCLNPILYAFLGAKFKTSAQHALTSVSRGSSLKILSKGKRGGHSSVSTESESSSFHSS
How it was run: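 U87.CXCR4 cells were loaded with 4 μM Fluo-2 AM for 45 min at 37 °C in HBSS/20 mM HEPES/0.2% BSA, pH 7.4. Calcium flux induced by CXCL-12 (25-50 ng/mL) was monitored kinetically by FLIPR fluorescence at 37 °C.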

[1] = molecular target: T2, CXCR4 (Jurkat cells expressing CXCR4) (Homo sapiens, UniProt P61073); assay: Chemokine (CXCL12-AF647) binding inhibition assay; conditions: CXCL12-AF647 25 ng/mL, read-out: IC50 CXCL-12 binding Jurkat
T2 construct: Jurkat cells expressing CXCR4; endogenous in cells; host or cells: Jurkat
T2 sequence (P61073 whole entry): as above
How it was run: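 Cells in HBSS, 20 mM HEPES, 0.2% BSA, pH 7.4, preincubated 15 min at room temperature with compound, then 25 ng/mL CXCL12-AF647 for 30 min. After washing and paraformaldehyde fixation, bound ligand read by flow cytometry; percent inhibition calculated from MFI relative to unlabeled and ligand-only controls.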

[2] = Mouse brain uptake assay (pharmacokinetics and brain penetration after IV administration); type: in vivo, Male CD1 Mice; conditions: male, 3 mg/kg IV, 3 time points; for Kp: CD1, brain and plasma, read-out: Kp (brain/plasma drug concentration ratio, AUC last(b)/AUC last(p)); for Kp / clearance / half-life: mouse, 0-1 h; for clearance / half-life: CD1, plasma; for clearance: read-out: Cl (Clearance) (converted); for half-life: read-out: t½ (half life) (converted); for AUC(0-t): CD1, time zero to 1 hr
Procedure: Example 15: Pharmacokinetics and Brain Penetration Experiment to Determine Brain and Plasma Concentrations of Compounds after IV Administration to Male CD1 Mice or Male SD Rats
The study design (9 animals) consisted of administrating the drug (IV: 3 mg/kg (5 mL/kg) via tail vein injection) and collecting samples at terminal bleeding for plasma and brain at 0.083, 0.5 and 1 h. The blood collection was performed as follows: the animal was restrained manually and approximately 150 μL blood/time point was collected into a dipotassium EDTA tube via retro orbital puncture under anesthesia with isoflurane. The blood sample was put on ice and centrifuged to obtain a plasma sample (2000 g, 5 min under 4° C.) within 15 minutes. The brain collection was performed as follows: a mid-line incision was made in the animal's scalp and the skin was retracted. Using small bone cutters and rongeurs, the skull overlying the brain was removed. The brain was removed using a spatula and the brain rinsed with cold saline. The brain was placed in screw-top tubes, and the tubes were stored at −70° C. until analysis. The IV dosing solution was prepared in 50 mM citrate buffer (pH 4.0) at 0.6 mg/mL.
Plasma Sample Preparation:
An aliquot of 30 μL sample was added to […] containing 50 ng/mL IS (Dexamethasone). The mixture was vortexed for 5 min and centrifuged at 14,000 rpm for 5 min. An aliquot of 5 μL supernatant was injected for LC-MS/MS analysis.
Brain Sample Preparation:
An aliquot of 30 μL brain homogenate (brain:PBS=1:3, w/v) sample was added to 150 μL IS in MeCN (Dexamethasone, 50 ng/mL). The mixture was vortexed for 5 min and centrifuged at 14,000 rpm for 5 min. An aliquot of 5 μL supernatant was injected for LC-MS/MS analysis.
The sample analysis was performed on LCMS/MS-003 (API4000, triple quadruple) under the following conditions: positive ion, ESI, MRM detection using dexamethasone as internal standard. HPLC conditions: mobile phase A: H2O (0.025% formic acid (FA) with 1 mM NH4OAc); mobile phase B: MeOH (0.025% FA with 1 mM NH4OAc) on Waters X-Bridge C18 (2.1×50 mm, 2.5 μm) column at 60° C.
A similar experiment was performed with 4 time points taken from 0-24 h.

[3] = mouse brain, read-out: AUClast (b) (area under the brain drug concentration-time curve)
[4] = mouse plasma, read-out: AUClast (p) (area under the plasma drug concentration-time curve)

Row | SMILES | Papp A→B at 90 min, 10 μM (in vitro) [×10⁻⁶ cm/s] | Papp B→A at 90 min, 10 μM (in vitro) [×10⁻⁶ cm/s] | efflux ratio at 90 min, 10 μM (in vitro) | IC50 (CXCR4 (U87.CXCR4 cells)) [nM] | IC50 [1] [nM] | Kp [2] | clearance [2] [mL/min/kg] | half-life [2] [h] | AUC(0-t) [2, 3] [ng·h/mL] | AUC(0-t) [2, 4] [ng·h/mL]
1 | Cc1cccnc1CN1CCCC1c1nc2cccc(N3CCN(C)CC3)c2[nH]1 (stereo not drawn) [Compound I-45] | 10 to 30 | 10 to 30 | 0.1 to 10 | 0.01 to 100 | 0.01 to 100 | 5.51 | 41.8 | 3.99 | 833 | 151
2 | Cc1cccnc1C1CCCN1Cc1nc2ccccc2n1C1CCN(C)CC1 (stereo not drawn) [Compound I-33] | 10 to 30 | 10 to 30 | 0.1 to 10 | 100 to 1000 | 0.01 to 100 | 6.6 | 27.5 | 4.93 | 1660 | 252
3 | c1ccc(C2CCCN2Cc2ncccc2-n2ccnc2)nc1 (stereo not drawn) [Compound I-75] | 10 to 30 | > 30 | 0.1 to 10 | ≥ 1000 | 100 to 1000 | – | – | – | – | –
4 | CN1CCN(c2cccc3nc(CN4CCCC4c4nccc5ccccc45)cn23)CC1 (stereo not drawn) [Compound I-14] | 0.1 to 10 | 10 to 30 | 0.1 to 10 | 100 to 1000 | 0.01 to 100 | – | – | – | – | –
5 | Cc1cccnc1C1CCCN1Cc1cn2c(C3OCC(N(C)C)CO3)cccc2n1 (stereo not drawn) [Compound I-99] | 0.1 to 10 | > 30 | > 30 | 100 to 1000 | 0.01 to 100 | – | – | – | – | –
6 | Cc1cccnc1C1CCCN1Cc1nc2cccc(N3CCN(C)CC3)n2c1C (stereo not drawn) [Compound I-46] | 0.1 to 10 | 10 to 30 | > 30 | 100 to 1000 | 0.01 to 100 | – | – | – | – | –
7 | Cc1cccnc1C1CCCN1Cc1ncccc1N1CCN(C)CC1 (stereo not drawn) [Compound I-53] | 0.1 to 10 | 10 to 30 | 0.1 to 10 | ≥ 1000 | 0.01 to 100 | – | – | – | – | –
8 | CN1CCN(c2cccc3nc(CN4CCCC4c4ncccc4Cl)c(F)n23)CC1 (stereo not drawn) [Compound I-35] | 0.1 to 10 | 10 to 30 | 0.1 to 10 | ≥ 1000 | 100 to 1000 | – | – | – | – | –
9 | Cc1cccnc1C1CCCCN1Cc1ccccc1-n1cccn1 (stereo not drawn) [Compound I-2, 2-(1-(2-(1H-pyrazol-1-yl)benzyl)piperidin-2-yl)-3-methylpyridine] | > 30 | > 30 | 0.1 to 10 | ≥ 1000 | ≥ 1000 | – | – | – | – | –

The remaining lines, values ahead:

Row | Papp A→B at 90 min, 10 μM (in vitro) [×10⁻⁶ cm/s] | Papp B→A at 90 min, 10 μM (in vitro) [×10⁻⁶ cm/s] | efflux ratio at 90 min, 10 μM (in vitro) | IC50 (CXCR4 (U87.CXCR4 cells)) [nM] | IC50 [1] [nM] | Kp [2] | clearance [2] [mL/min/kg] | half-life [2] [h] | AUC(0-t) [2, 3] [ng·h/mL] | AUC(0-t) [2, 4] [ng·h/mL] | SMILES
10 | 10 to 30 | 10 to 30 | 0.1 to 10 | 0.01 to 100 | 0.01 to 100 | 3.13 | 38.7 | 3.43 | 1230 | 393 | CN1CCN(c2c(CN3CCCC3c3ccccn3)nc3ccccn23)CC12CC2 (stereo not drawn) [Compound I-58]
11 | 0.1 to 10 | 10 to 30 | 0.1 to 10 | 0.01 to 100 | 0.01 to 100 | 1.05 | 58.3 | 3.71 | 240 | 227 | CN1CCN(c2c(CN3CCCC3c3ncccc3Cl)nc3ccccn23)CC1 (stereo not drawn) [Compound I-59]
12 | 0.1 to 10 | 10 to 30 | 0.1 to 10 | 100 to 1000 | 100 to 1000 | – | – | – | – | – | Cc1cccnc1C1CCCN1Cc1nc2cccc(N3CCN(C)C4(CC4)C3)c2[nH]1 (stereo not drawn) [Compound I-28]
13 | 10 to 30 | 10 to 30 | 0.1 to 10 | 100 to 1000 | 0.01 to 100 | – | – | – | – | – | CN1CCN(c2c(CN3CCCC3c3ccccn3)nc3c(F)cccn23)CC1 (stereo not drawn) [Compound I-61]
14 | 10 to 30 | > 30 | 0.1 to 10 | ≥ 1000 | ≥ 1000 | – | – | – | – | – | c1ccc(OCc2c(CN3CCCC3c3ccccn3)nc3ccccn23)nc1 (stereo not drawn) [Compound I-94]
